Series [1] is described as follows: Hygroscopicity of crystalline hydrochloride (9) crystallized from various solvents. The series is classed as physicochemical. How it is done:
Crystallization of (1R,2R)-1-methyl-2-(2-methylpropanoyloxy)propyl (2S)-2-amino-3-(3,4-dihydroxyphenyl)propanoate hydrochloride (9) was crystallized using the solvents listed in Table 1 on an 80 mg scale.

For series [2] the following is noted: oral administration; cited from earlier work.

Several values for one entry are separate records, joined by “and”; a condition that tells them apart may be missing. Equal entries are not always repeated.

In general, melting point refers to the temperature of the solid-liquid transition. Take `CC(C)C(=O)O[C@H](C)[C@@H](C)OC(=O)[C@@H](N)Cc1ccc(O)c(O)c1.Cl` [Compound 9, (1R,2R)-1-Methyl-2-(2-methylpropanoyloxy)propyl (2S)-2-Amino-3-(3,4-dihydroxyphenyl)propanoate Hydrochloride]: the melting point is 164.7 to 166.2 °C and 164.9 to 166.4 °C. In addition, the Hygroscopicity entry in series [1] (crystallized from acetonitrile) was “None”. Moreover, in series [1] (crystallized from isopropanol-ethyl acetate), the Hygroscopicity entry is given as “None”. The Hygroscopicity result in series [1] (crystallized from isopropanol-methyl tert-butyl ether) is given as “None”. Moreover, the Hygroscopicity result in series [1] (crystallized from tetrahydrofuran-diisopropyl ether) is given as “None”. In addition, the Hygroscopicity entry in series [1] (crystallized from tetrahydrofuran-hexane) is reported as “None”. In series [1] (crystallized from tetrahydrofuran-methyl tert-butyl ether), the Hygroscopicity entry was “None”. Besides, the Hygroscopicity entry in series [1] (crystallized from water-acetonitrile) is recorded as “None”. The Hygroscopicity result in series [1] (crystallized from water-methyl tert-butyl ether) is recorded as “None”.

As to `CS(=O)(=O)O.C[C@@H](OC(=O)c1ccccc1)[C@@H](C)OC(=O)[C@@H](N)Cc1ccc(O)c(O)c1` [Compound 11, (1R,2R)-1-Methyl-2-phenylcarbonyloxypropyl (2S)-2-Amino-3-(3,4-dihydroxyphenyl)propanoate Mesylate], the melting point is 94.4 °C (dec.).

Turning to `CC(C)(C)C(=O)Oc1ccc(C[C@H](N)C(=O)O)cc1O` [NB-355], in series [2], the “duration of circulating levodopa” value is “prolonged” and the “plasma concentrations of levodopa” value is on record as “low”.

In turn, `CC(C)C(=O)O[C@H](C)[C@@H](C)OC(=O)[C@@H](N)Cc1ccc(O)c(O)c1.CS(=O)(=O)O` registered a melting point of 181.2 to 186 °C.

Source of the values: patent US8324272B2 (XenoPort, Inc., priority 2006, dated 2012).
